Experiments:
[1] = molecular target: T1, HEK-293 cells transfected with dox-inducible human wild type FGFR3 (Homo sapiens (Human), UniProt P22607); assay: FGFR3 pFGFR cell assay (ELISA); assay type: cell-based; conditions: HEK-293 dox-inducible FGFR3, 1 hour compound, 100 ng/ml FGF-acidic
Description: FGFR3 pFGFR Cell Assay: • HEK-293 cells transfected with dox-inducible human wild type FGFR3 (SEQ ID NO: 5) were plated in a collagen or poly-D-lysine coated 96 well flat bottom plates at 4×10^5 cells/well in complete DMEM medium containing 10% FBS and 1 μg/ml doxycycline and allowed to attach for 24 h at 37° C., 5% CO2. Cells were treated with compound using 1:3 serial dilutions with a top final concentration of 5 μM. Compound was incubated on cells for 1 hour at 37° C., 5% CO2. Cells were then stimulated with a final concentration of 100 ng/ml human FGF-acidic for 5 minutes at 37° C., 5% CO2. Medium was removed and cells were lysed with lysis buffer containing phosphatase and protease inhibitors. Phospho FGFR3 was measured by ELISA (R&D Systems cat DYC2719). The ELISA captures total FGFR3 and detects total phospho tyrosine. Optical density was measured for each well using a Versamax reader at a wavelength of 450 nm. 100 POC was determined using no test compounds and 0 POC was determined using a control compound. The POC values were fit to a 4-parameter logistic curve as a function of the concentration of the compound, and the IC50 value is the point where the curve crosses 50 POC.

[2] = molecular target: recombinant human FGFR2 cytoplasmic domain (amino acids 403-822) (Homo sapiens (Human), UniProt P21802); assay: FGFR2 enzyme activity assay (LanthaScreen TR-FRET); assay type: biochemical; conditions: 15 μM ATP, 20 min incubation at 22° C., average of multiple determinations if made, read-out: FGFR2 Enz FRET IC50
Method in brief: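 His-tagged FGFR2 cytoplasmic domain ([…]) with 100 nM Alexa Fluor 647-poly-GT peptide and 15 μM ATP in HEPES/MgCl2/Triton buffer, pH 7.5, 2% DMSO, 20 min at 22 °C. EDTA-quenched, Eu-PY20 antibody added, TR-FRET read after 60 min.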

[3] = molecular target: phosphorylated FGFR3 (SEQ ID NO: 5, amino acids 449 to 759) (Homo sapiens (Human), UniProt P22607); assay: FGFR enzyme binding assay (HTRF tracer displacement), FGFR3; conditions: 5 nM phosphorylated FGFR3, average of multiple determinations if made
Method in brief: (§1)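 Compounds were tested for displacement of a tracer from human FGFR kinase in a time-resolved FRET binding format. After 60 minutes at 22° C, signal was read at two wavelengths and converted to percent of control, normalised between untreated wells and 1 μM reference inhibitor.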

[4] = molecular target: recombinant human FGFR3 (amino acids R397-T806) (Homo sapiens (Human), UniProt P22607); assay: FGFR3 enzyme activity assay (LanthaScreen TR-FRET); assay type: biochemical; conditions: 25 μM ATP, 10 min incubation at 22° C., average of multiple determinations if made, read-out: FGFR3 Enz FRET IC50
Method in brief: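 GST-HIS6-tagged human FGFR3 (R397-T806) was reacted with 100 nM Alexa Fluor 647-Poly-GT substrate and 25 μM ATP plus compound in HEPES/MgCl2/Triton buffer, pH 7.5, 2% DMSO, for 10 min at 22 °C.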

[5] = molecular target: FGFR3 (SEQ ID NO: 5, amino acids 449-759) (Homo sapiens (Human), UniProt P22607); assay: LC/MS FGFR3 kobs assay (covalent protein modification); assay type: binding; conditions: 500 nM FGFR3, 3 μM compound
Method in brief: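 Timed reactions were stopped with 0.4% formic acid, and covalent adduct formation was measured by LC/MS on a Q-TOF with deconvolution of protein masses. Modified signal was normalized to DMSO-control unmodified protein at each time point; percent unmodified protein was fit to exponential decay to give kobs.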

[6] = molecular target: HEK-293 cells transfected with dox-inducible human wild type FGFR1 (Homo sapiens (Human), UniProt P11362); assay: FGFR1 pERK cell assay; assay type: cell-based; conditions: HEK-293 dox-inducible FGFR1, 1 hour compound, 100 ng/ml FGF-acidic; maximum concentration 5 μM
Description: (§2) FGFR1 pERK Cell Assay: • HEK-293 cells transfected with doxycycline(dox)-inducible human wild type FGFR1 (SEQ ID NO: 1) were plated in a collagen or poly-D-lysine coated 96 well flat bottom plates at 4×10^5 cells/well in complete Dulbecco's Modified Eagle Medium (DMEM) containing 10% FBS and 1 μg/ml doxycycline and allowed to attach for 24 h at 37° C., 5% CO2. Cells were treated with compound using 1:3 serial dilutions with a maximum final concentration of 5 μM. Compound was incubated on cells for 1 hour at 37° C., 5% CO2. Cells were then stimulated with a final concentration of 100 ng/ml human FGF-acidic (R&D Systems Cat number 232-FA/CF) for 5 minutes at 37° C., 5% CO2. Medium was removed, and cells were lysed with lysis buffer containing phosphatase and protease inhibitors. Phospho ERK1/2 was measured using the Meso Scale Discovery sandwich assay (Meso Scale Discovery cat. no. K151DWD). The assay captures phospho ERK1/2 and detects with a sulfo-tagged total ERK1/2 antibody. The chemiluminescent signal was read on the Sector Imager Plate reader. 100 POC was determined using no test compound and 0 POC was determined using a control compound. The POC values were fit to a 4-parameter logistic curve as a function of the concentration of the compound, and the IC50 value is the point where the curve crosses 50 POC.

[7] = molecular target: T1, HEK-293 cells transfected with dox-inducible human wild type FGFR3; assay: FGFR3 pERK cell assay; assay type: cell-based; conditions: HEK-293 dox-inducible FGFR3, 1 hour compound, 100 ng/ml FGF-acidic; maximum concentration 5 μM
Description: as §2, with “FGFR3 pERK” for “FGFR1 pERK”, “with dox-inducible” for “with doxycycline(dox)-inducible”, “type FGFR3” for “type FGFR1”, “NO: 5)” for “NO: 1)”, “complete DMEM medium” for “complete Dulbecco's Modified Eagle Medium (DMEM)”, “test compounds” for “test compound”

[8] = molecular target: dephosphorylated FGFR1 (SEQ ID NO: 1, amino acids 458 to 765) (Homo sapiens (Human), UniProt P11362); assay: FGFR enzyme binding assay (HTRF tracer displacement), FGFR1; conditions: 5 nM dephosphorylated FGFR1, average of multiple determinations if made
Method in brief: as §1

[9] = molecular target: recombinant human FGFR1 catalytic domain (amino acids 308-731) (Homo sapiens (Human), UniProt P11362); assay: FGFR1 enzyme activity assay (LanthaScreen TR-FRET); assay type: biochemical; conditions: 20 min incubation at 22° C., average of multiple determinations if made, read-out: FGFR1 Enz FRET IC50
Method in brief: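 His-tagged FGFR1 kinase domain with 100 nM Alexa Fluor 647-poly-GT peptide and ATP in pH 7.5 HEPES/MgCl2 buffer with 2% DMSO, 20 min at 22 °C. Quenched with EDTA plus 2 nM Eu-PY20 antibody and read after 60 min. IC50 comes from a 4-parameter fit of percent of control.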

Sequence of recombinant human FGFR2 cytoplasmic domain (amino acids 403-822) (P21802 402-821): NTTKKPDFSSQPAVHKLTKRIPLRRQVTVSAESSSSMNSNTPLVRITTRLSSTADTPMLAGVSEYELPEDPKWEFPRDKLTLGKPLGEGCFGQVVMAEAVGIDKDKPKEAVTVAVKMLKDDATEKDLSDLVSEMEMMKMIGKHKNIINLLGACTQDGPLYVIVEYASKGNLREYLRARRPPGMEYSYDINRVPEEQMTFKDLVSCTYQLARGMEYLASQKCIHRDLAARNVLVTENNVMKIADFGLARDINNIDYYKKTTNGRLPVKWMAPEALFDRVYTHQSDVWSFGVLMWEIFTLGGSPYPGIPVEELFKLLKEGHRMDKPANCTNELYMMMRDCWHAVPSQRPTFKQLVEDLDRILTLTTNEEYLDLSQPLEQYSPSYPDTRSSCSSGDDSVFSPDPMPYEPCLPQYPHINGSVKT
Sequence of HEK-293 cells transfected with dox-inducible human wild type FGFR1 (P11362 22-822): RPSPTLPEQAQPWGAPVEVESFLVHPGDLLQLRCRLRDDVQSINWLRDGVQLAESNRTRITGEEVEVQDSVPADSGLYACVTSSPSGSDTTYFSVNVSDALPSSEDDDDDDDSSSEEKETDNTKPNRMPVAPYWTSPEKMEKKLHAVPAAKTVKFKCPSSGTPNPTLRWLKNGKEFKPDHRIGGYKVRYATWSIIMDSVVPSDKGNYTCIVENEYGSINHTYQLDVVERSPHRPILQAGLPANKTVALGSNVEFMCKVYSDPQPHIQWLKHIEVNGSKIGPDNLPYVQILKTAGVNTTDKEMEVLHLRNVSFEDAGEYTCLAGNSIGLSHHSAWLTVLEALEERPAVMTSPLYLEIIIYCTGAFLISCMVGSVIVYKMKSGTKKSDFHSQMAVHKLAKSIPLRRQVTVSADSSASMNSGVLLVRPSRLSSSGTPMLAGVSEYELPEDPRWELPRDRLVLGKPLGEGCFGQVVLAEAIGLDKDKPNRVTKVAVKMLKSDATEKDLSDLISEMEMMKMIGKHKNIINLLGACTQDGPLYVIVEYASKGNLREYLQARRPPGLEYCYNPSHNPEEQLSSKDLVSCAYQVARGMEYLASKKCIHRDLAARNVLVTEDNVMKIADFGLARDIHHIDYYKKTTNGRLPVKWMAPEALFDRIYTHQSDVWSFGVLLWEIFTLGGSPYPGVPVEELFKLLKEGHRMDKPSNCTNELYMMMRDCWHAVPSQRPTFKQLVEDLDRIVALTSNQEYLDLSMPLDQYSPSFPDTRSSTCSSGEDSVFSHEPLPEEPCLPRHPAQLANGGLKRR
Sequence of recombinant human FGFR3 (amino acids R397-T806) (P22607 397-806): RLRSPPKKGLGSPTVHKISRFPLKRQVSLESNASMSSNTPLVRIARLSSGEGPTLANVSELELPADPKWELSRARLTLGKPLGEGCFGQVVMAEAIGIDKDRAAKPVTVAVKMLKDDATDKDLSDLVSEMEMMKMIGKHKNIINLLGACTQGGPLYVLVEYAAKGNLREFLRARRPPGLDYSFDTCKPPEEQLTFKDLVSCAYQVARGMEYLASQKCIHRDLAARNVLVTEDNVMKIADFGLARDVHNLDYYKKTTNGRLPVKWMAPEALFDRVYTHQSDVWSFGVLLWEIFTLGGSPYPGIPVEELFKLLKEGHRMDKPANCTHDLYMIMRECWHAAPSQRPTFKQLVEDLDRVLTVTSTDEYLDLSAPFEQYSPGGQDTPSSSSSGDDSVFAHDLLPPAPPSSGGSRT
Sequence of phosphorylated FGFR3 (SEQ ID NO: 5, amino acids 449 to 759) (P22607 449-759): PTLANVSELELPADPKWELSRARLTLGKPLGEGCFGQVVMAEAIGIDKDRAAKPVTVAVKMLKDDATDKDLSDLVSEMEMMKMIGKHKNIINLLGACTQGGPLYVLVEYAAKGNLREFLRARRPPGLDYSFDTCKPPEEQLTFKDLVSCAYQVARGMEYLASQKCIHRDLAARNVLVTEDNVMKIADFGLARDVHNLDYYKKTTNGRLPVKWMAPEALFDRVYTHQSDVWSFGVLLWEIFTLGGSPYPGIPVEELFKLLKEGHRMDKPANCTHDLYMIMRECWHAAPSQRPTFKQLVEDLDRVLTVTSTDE
Sequence of FGFR3 (SEQ ID NO: 5, amino acids 449-759) (P22607 449-759): as above
T1 sequence (P22607 23-806): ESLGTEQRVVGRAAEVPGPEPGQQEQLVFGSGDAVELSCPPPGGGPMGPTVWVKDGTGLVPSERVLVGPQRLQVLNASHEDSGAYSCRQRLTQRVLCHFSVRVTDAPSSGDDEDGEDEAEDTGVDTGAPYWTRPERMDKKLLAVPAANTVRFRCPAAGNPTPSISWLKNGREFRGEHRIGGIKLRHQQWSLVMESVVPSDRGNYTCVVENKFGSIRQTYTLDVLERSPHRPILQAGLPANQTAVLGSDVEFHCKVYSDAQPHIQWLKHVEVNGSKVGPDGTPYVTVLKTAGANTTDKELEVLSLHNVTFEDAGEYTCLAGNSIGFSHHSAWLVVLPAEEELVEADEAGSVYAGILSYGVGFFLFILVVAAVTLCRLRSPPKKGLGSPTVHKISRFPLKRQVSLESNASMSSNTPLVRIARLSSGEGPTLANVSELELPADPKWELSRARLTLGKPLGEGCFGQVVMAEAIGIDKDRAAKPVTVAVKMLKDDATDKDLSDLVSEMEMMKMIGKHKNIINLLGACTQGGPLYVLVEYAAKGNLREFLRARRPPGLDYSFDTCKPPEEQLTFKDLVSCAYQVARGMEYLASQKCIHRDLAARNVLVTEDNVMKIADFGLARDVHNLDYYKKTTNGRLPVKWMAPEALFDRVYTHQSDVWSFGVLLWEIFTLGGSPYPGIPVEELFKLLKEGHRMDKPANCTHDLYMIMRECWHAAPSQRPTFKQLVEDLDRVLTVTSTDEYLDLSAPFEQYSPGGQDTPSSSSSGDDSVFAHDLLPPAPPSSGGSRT
Sequence of dephosphorylated FGFR1 (SEQ ID NO: 1, amino acids 458 to 765) (P11362 458-765): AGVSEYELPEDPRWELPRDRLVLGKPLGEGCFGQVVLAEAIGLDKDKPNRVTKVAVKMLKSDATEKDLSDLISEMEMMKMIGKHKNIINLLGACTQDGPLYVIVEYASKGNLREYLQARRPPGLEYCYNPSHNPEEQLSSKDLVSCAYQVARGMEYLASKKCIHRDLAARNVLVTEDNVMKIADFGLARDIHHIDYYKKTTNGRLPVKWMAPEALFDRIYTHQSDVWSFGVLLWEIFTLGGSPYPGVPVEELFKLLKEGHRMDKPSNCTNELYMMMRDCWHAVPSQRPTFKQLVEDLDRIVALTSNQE
Sequence of recombinant human FGFR1 catalytic domain (amino acids 308-731) (P11362 other isoform, or with tags, fused parts or gaps): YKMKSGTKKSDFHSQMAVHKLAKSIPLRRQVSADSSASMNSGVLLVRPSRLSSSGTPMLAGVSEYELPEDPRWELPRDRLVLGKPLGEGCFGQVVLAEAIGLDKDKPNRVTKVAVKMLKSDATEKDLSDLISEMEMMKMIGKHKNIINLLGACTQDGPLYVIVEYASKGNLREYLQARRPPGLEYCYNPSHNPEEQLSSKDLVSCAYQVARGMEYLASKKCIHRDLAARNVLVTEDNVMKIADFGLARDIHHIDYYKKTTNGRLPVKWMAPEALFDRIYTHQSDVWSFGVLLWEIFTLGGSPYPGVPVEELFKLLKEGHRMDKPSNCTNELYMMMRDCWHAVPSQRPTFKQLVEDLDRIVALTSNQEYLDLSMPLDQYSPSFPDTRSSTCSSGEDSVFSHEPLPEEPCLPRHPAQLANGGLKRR

SMILES | IC50 [1] | IC50 [2] | IC50 [3] | IC50 [4] | FGFR3 Enz kobs [5] | also measured
C=CC(=O)N1CCC(C(=O)N2CCC(n3cc(-c4cc(OC)c5c(C#N)cnn5c4)cn3)CC2)CC1 [Example 12, 6-(1-(1-(1-acryloylpiperidine-4-carbonyl)piperidin-4-yl)-1H-pyrazol-4-yl)-4-methoxypyrazolo[1,5-a]pyridine-3-carbonitrile] | 242 nM | 3 nM | 32 nM | 3 nM | 0.00231 min⁻¹ | –
C=CC(=O)Nc1ccc(S(=O)(=O)N2CCC(n3cc(-c4cc(OC)c5c(C#N)cnn5c4)cn3)CC2)cc1 [Example 49, N-(4-((4-(4-(3-cyano-4-methoxypyrazolo[1,5-a]pyridin-6-yl)-1H-pyrazol-1-yl)piperidin-1-yl)sulfonyl)phenyl)acryl-amide (2,2,2-trifluoroacetate)] | 20 nM | – | – | – | – | –
C=C(F)C(=O)N1CC(C(=O)N2CCC(n3cc(-c4cc(OC)c5c(C#N)cnn5c4)cn3)CC2)C1 [Example 140, 6-(1-(1-(1-(2-fluoroacryloyl)azet-idine-3-carbonyl)piperidin-4-yl)-1H-pyrazol-4-yl)-4-methoxypyrazolo [1,5-a]pyridine-3-carbonitrile] | – | – | – | – | – | IC50 [6]: 206 nM; IC50 [7]: 105 nM
COc1cc(-c2cnn(C3CN(CC4CN(C(=O)/C=C/CN(C)C)C4)C3)c2)cn2ncc(C#N)c12 [Example 148] | 351 nM | – | – | – | – | –
COc1cc(-c2cnn(C3CN(C(=O)C4CN(C(=O)/C=C/CN(C)C)C4)C3)c2)cn2ncc(C#N)c12 [Example 150] | 2320 nM | – | – | – | – | –
C=CS(=O)(=O)N1CC[C@@H](C(=O)N2CCC(n3cc(-c4cc(OC)c5c(C#N)cnn5c4)cn3)CC2)C1 [Example 185] | 12 nM | 5 nM | 4 nM | 3 nM | 0.06081 min⁻¹ | –
C=CS(=O)(=O)N[C@H]1CC[C@H](C(=O)N2CCC(n3cc(-c4cc(OC)c5c(C#N)cnn5c4)cn3)CC2)CC1 [Example 187, N-((1r,4r)-4-(4-(4-(3-cyano-4-methoxypyrazolo[1,5-a]pyridin-6-yl)-1H-pyrazol-1-yl)piperidine-1-carbonyl)cyclohexyl) ethenesulfonamide] | 74 nM | – | – | – | – | –
C=CS(=O)(=O)N1CC[C@H](C(=O)N2CCC(n3cc(-c4cc(OC)c5c(C#N)cnn5c4)cn3)CC2)C1 [Example 189, (S)-4-methoxy-6-(1-(1-(1-(vinylsulfonyl)pyrrol-idine-3-carbonyl)piperidin-4-yl)-1H-pyrazol-4-yl)pyrazolo[1,5-a]pyridine-3-carbonitrile] | 9 nM | 3 nM | 3 nM | 4 nM | 0.0728 min⁻¹ | –
C=CS(=O)(=O)N1CC(C(=O)N2CCC(n3cc(-c4cc(OC)c5c(C#N)cnn5c4)cn3)CC2)C1 [Example 192, 4-methoxy-6-(1-(1-(1-(vinylsulfonyl)azetidine-3-carbonyl)piperidin-4-yl)-1H-pyrazol-4-yl)pyrazolo[1,5-a]pyridine-3-carbonitrile] | 12 nM | 9 nM | 12 nM | 3 nM | 0.1008 min⁻¹ | IC50 [8]: 70 nM; IC50 [9]: 14 nM
C=CS(=O)(=O)N[C@H]1C[C@@H](C(=O)N2CCC(n3cc(-c4cc(OC)c5c(C#N)cnn5c4)cn3)CC2)C1 [Example 193, N-((1s,3s)-3-(4-(4-(3-cyano-4-methoxypyrazolo[1,5-a]pyridin-6-yl)-1H-pyrazol-1-yl)piperidine-1-carbonyl)cyclobutyl) ethenesulfonamide] | – | – | – | – | – | IC50 [6]: 328 nM
C=CS(=O)(=O)N[C@H]1C[C@H](C(=O)N2CCC(n3cc(-c4cc(OC)c5c(C#N)cnn5c4)cn3)CC2)C1 [Example 194, N-((1r,3r)-3-(4-(4-(3-cyano-4-methoxypyrazolo[1,5-a]pyridin-6-yl)-1H-pyrazol-1-yl)piperidine-1-carbonyl)cyclobutyl) ethenesulfonamide] | – | – | – | – | – | IC50 [6]: 401 nM
C=CS(=O)(=O)N1CCC2(CC1)CC(C(=O)N1CCC(n3cc(-c4cc(OC)c5c(C#N)cnn5c4)cn3)CC1)C2 [Example 195, 4-methoxy-6-(1-(1-(7-(vinylsulfonyl)-7-azaspiro[3.5]nonane-2-carbonyl)piperidin-4-yl)-1H-pyrazol-4-yl)pyrazolo[1,5-a]pyridine-3-carbonitrile] | 14 nM | 7 nM | 4 nM | 5 nM | 0.02572 min⁻¹ | IC50 [8]: 50 nM; IC50 [9]: 19 nM
C=CS(=O)(=O)Nc1ccc(C(=O)N2CCC(n3cc(-c4cc(OC)c5c(C#N)cnn5c4)cn3)CC2)cc1 [Example 196, N-(4-(4-(4-(3-cyano-4-methoxypyrazolo[1,5-a]pyridin-6-yl)-1H-pyrazol-1-yl)piperidine-1-carbonyl)phenyl)ethenesulfonamide] | 26 nM | – | – | – | – | –
